Experimental data: patent publication US20210283083A1, “USE OF TYROSINE HYDROXYLASE INHIBITORS FOR THE TREATMENT OF AORTIC ANEURYSM” (CONSEJO SUPERIOR DE INVESTIGACIONES CIENTÍFICAS (CSIC), priority 2018, published 2021)

Columns and labels:
Type in all cases: in vivo
[1] = Systolic blood pressure in TgNR4A3^CML mice infused with Ang II; details: for systolic pressure: Ang II + AMPT
Protocol: (§1) The studies were developed in male ApoE^−/− mice who were acclimatised to the facility for 1 week before the study. Animals were infused with Ang II (1000 ng/kg/min) by means of osmotic minipumps (model 1004, Alzet) implemented subcutaneously in the interscapular space of the mice after anesthesia with isoflurane. The procedure lasts approximately 15 minutes per animal. Immediately after surgery, antibiotics (penicillin, 22,000 u/Kg, i.m.) and analgesics (buprenorphine 0.05 mg/Kg, i.m.) were administered for preventing infections and limiting animal discomfort, which were kept on a heating pad until they woke up after the intervention and were carefully monitored during the post-surgery period. A group of the mice infused with Ang II received AMPT treatment (100 mg/kg, via i.p) administered twice daily from the day before implementing the Ang II pump and throughout the study (28 days). The control group consisted of ApoE^−/− mice infused with saline. Blood pressure was assessed weekly (at 0, 7, 14, 21 and 28 days) by means of the tail plethysmography method. The diameter of the aorta was also assessed weekly by means of abdominal ultrasound using ultrasound equipment (Vevo2100 Imaging systems, Visualsonics) with a 30 MHz transducer. To do this, the mice were anesthetised by means of 1.5% isofluorane inhalation and secured in a supine position on a heating platform. After shaving the precordial region, the transducer was applied to the abdominal wall to take measurements of the abdominal aorta. Those abdominal aortas with external diameters greater than or equal to 1.5 mm were considered aneurysmal. All measurements were carried out from the images captured by using the analysis software. After 4 weeks, the animals were euthanised by means of terminal intraperitoneal anesthesia with a mixture of medetomidine (1 mg/kg) and ketamine (75 mg/kg) in saline (final volume of 200 μl), aortas were immediately harvested, they were examined to determine the presence of aneurysms and were immediately frozen in nitrogen or fixed in paraformaldehyde for macroscopic characterisation or to be embedded in paraffin and processed for histochemical studies.
The studies were developed in a similar way to that described in Example 3. In this case, the effect of the infusion of Ang II on the diameter of the aorta in control animals (C57BL/6J; WT) and in transgenic mice for NR4A3 (TgNR4A3^CML) was analysed. The transgenic mice infused with Ang II were divided into two groups, one of which received AMPT treatment from the day before implementation of the Ang II pumps, as described in Example 3, while the second group only received the vehicle in which this drug was administered (saline). The control groups consisted of transgenic mice and non-transgenic controls infused with saline.

[2] = system: ApoE^−/− mice infused with angiotensin II; experiment: Ang II-induced aortic aneurysm in ApoE^−/− mice (ultrasonography, histology)
Protocol: FIG. 3. […] (A) Graph which represents the weekly evolution of the aortic diameter of ApoE^−/− mice infused with saline or angiotensin II (Ang II; 1000 ng/kg/min for 28 days) analysed by means of ultrasonography. Animals infused with Ang II were treated or not with AMPT (100 mg/kg via IP, administered twice a day from the day before implementing the Ang II pump). The values correspond to the mean±SEM (saline, n=9; Ang II, n=14; Ang II+AMPT, n=19). P<0.05: * vs. time 0 of the same experimental group; # vs. animals infused with saline at the same time; $ vs. animals infused with Ang II (not treated with AMPT) at the same time. (B) Representative images obtained by means of ultrasonography of the cross-sectional view of the aorta of each of the experimental groups indicated in (A) after 4 weeks of treatment. (C) Representative photographs of the aortas of the mice in the 3 study groups at the end of the study.
(§2) FIG. 4. […] ApoE^−/− mice were infused with saline or angiotensin II (Ang II; 1000 ng/kg/min for 28 days). Animals infused with Ang II were treated or not with AMPT (100 mg/kg, via IP, administered twice a day from the day before implementing the Ang II pump). (A and B) Representative images of the histological analysis using Masson's trichrome (A) and orcein (B) staining in sections of the abdominal aorta of the indicated study groups. Arrows indicate elastic fibre ruptures. (C) Representative staining for MAC3 (macrophage marker) in sections of the abdominal aorta of each one of the experimental groups. Arrows indicate positive regions for MAC3. Bar: 100 microns.
as §1

[3] = Systolic blood pressure by tail plethysmography in ApoE^−/− mice infused with Ang II; details: for systolic pressure: Ang II 1000 ng/kg/min + AMPT 100 mg/kg i.p. twice daily
Protocol: as §1

[4] = system: TgNR4A3^CML mice infused with angiotensin II; experiment: Ang II-induced aortic aneurysm in TgNR4A3^CML mice (ultrasonography, histology)
Protocol: (A) Diameter of the aorta of non-transgenic mice (controls; C57BL/6J; WT) and transgenic mice for human NR4A3 (TgNR4A3^CML) infused with saline or angiotensin II (Ang II; 1000 ng/kg/min for 28 days). A group of TgNR4A3^CML mice infused with Ang II was treated with AMPT (100 mg/kg, via IP, administered twice a day from the day before implementing the Ang II pump). The diameter of the aorta was determined by means of ultrasonography. Values are expressed as mean±SEM (at least n=7). P<0.05: * vs. time 0 of the same experimental group; # vs. the same animal infused with saline at the same time; $ vs. TgNR4A3CML infused with Ang II and treated with AMPT. (B) Representative images obtained by means of ultrasonography of the cross-sectional view of the aorta of each of the experimental groups indicated in (A) after 4 weeks of treatment. (C) Representative photographs of the aortas of the mice in the 5 groups at the end of the study.
as §2, with “6.” for “4.”, “Non-transgenic (controls; C57BL/6J; WT) and transgenic” for “ApoE^−/−”, “mice for human NR4A3 (TgNR4A3^CML)” for “mice”, “A group of transgenic animals” for “Animals”
as §1
The studies were developed in a similar way to that described in Example 3. […]

[5] = ApoE^−/− mice, Ang II, AMPT 100 mg/kg i.p. twice daily, 28 days
[6] = TgNR4A3^CML mice, Ang II, AMPT treatment

CC(N)(Cc1ccc(O)cc1)C(=O)O (stereo not drawn) [AMPT, alpha-methyl-p-tyrosine]
systolic pressure ([1]; day 0, mean ± SEM): 100.19 mm Hg | systolic pressure ([1]; day 7, mean ± SEM): 111.79 mm Hg | systolic pressure ([1]; day 14, mean ± SEM): 129.03 mm Hg | systolic pressure ([1]; day 21, mean ± SEM): 146.44 mm Hg | systolic pressure ([1]; day 28, mean ± SEM): 158.59 mm Hg | effect of AMPT treatment on Ang II-increased blood pressure ([1]; Ang II infusion, AMPT 100 mg/kg i.p. twice daily): without significant differences | development of aortic aneurysm ([2]; ApoE^−/− mice infused with Ang II 1000 ng/kg/min for 28 days, AMPT 100 mg/kg IP twice a day): inhibits the development of aortic aneurysm | Ang II-induced increase in aortic diameter (ultrasonography) ([2]; ApoE^−/− mice, AMPT 100 mg/kg i.p. twice daily, significant after 14 days, accentuated until 28 days): reduced the increase in aortic diameter to values similar to those of control animals | structural alterations and inflammatory infiltrate in the aorta ([2]; ApoE^−/− mice, Ang II 1000 ng/kg/min for 28 days, AMPT 100 mg/kg IP twice a day): limits structural alterations and inflammatory infiltrate | disruption and rupture of elastic fibers (orcein staining) [2, 5]: limited the disruption and rupture of elastic fibers | macrophage (MAC3-positive cells) infiltrate in the vascular wall [2, 5]: prevented the significant macrophage (MAC3-positive cells) infiltrate | vascular remodelling / collagen deposition (Masson's trichrome) [2, 5]: attenuated | systolic pressure ([3]; day 0, mean ± SEM): 100.55 mm Hg | systolic pressure ([3]; day 7, mean ± SEM): 133.99 mm Hg | systolic pressure ([3]; day 14, mean ± SEM): 136.36 mm Hg | systolic pressure ([3]; day 21, mean ± SEM): 143.34 mm Hg | systolic pressure ([3]; day 28, mean ± SEM): 154.46 mm Hg | effect of AMPT treatment on Ang II-increased blood pressure ([3]; Ang II infusion, AMPT 100 mg/kg i.p. twice daily, 28 days): not significantly altered | development of aortic aneurysm ([4]; TgNR4A3^CML mice infused with Ang II 1000 ng/kg/min for 28 days, AMPT 100 mg/kg IP twice a day): inhibits the development of aortic aneurysm | Ang II-induced increase in aortic diameter (ultrasonography) ([4]; TgNR4A3^CML mice, AMPT 100 mg/kg i.p. twice daily, after 21 and 28 days, values similar to WT mice infused with Ang II): significantly prevented this effect | structural alterations and inflammatory infiltrate in the aorta ([4]; TgNR4A3^CML mice, Ang II 1000 ng/kg/min for 28 days, AMPT 100 mg/kg IP twice a day): limits structural alterations and inflammatory infiltrate | destructuring and rupture of the elastic laminae (orcein staining) [4, 6]: limited the destructuring and rupture of the elastic laminae | vascular inflammatory infiltrate (MAC3 immunohistochemistry) [4, 6]: reduced the important vascular inflammatory infiltrate | vascular remodelling and collagen deposition (Masson's trichrome) [4, 6]: attenuated the exacerbated vascular remodelling and collagen deposition
